Experimental data: ChEMBL document CHEMBL6109128, “Copper-KRAS-COX2 Axis: A Therapeutic Vulnerability in Pancreatic Cancer” (J Med Chem, 2025)
Activity calls are given as the source filed them.

Tests used:
CT26 = experiment: Synergistic antiproliferative activity against mouse CT26 cells at 0.01 to 3 uM in presence of MRTX1133; format: functional, cell-based; details: dose 0.01-3 µM
HCT-116 [1] = experiment: Induction of ferroptosis in human HCT-116 cells assessed as cell death at up to 1 uM in presence of […]; format: functional, cell-based
[2] = Half life in CD-1 mouse at 30 mg/kg, po measured up to 24 hrs by LC-MS/MS analysis; format: ADME, organism-based; details: in vivo
[3] = Volume of distribution at steady state in CD-1 mouse at 15 mg/kg, iv measured up to 24 hrs by LC-MS/MS analysis; format: ADME, organism-based; details: in vivo, read-out: Vdss
[4] = AUC in CD-1 mouse at 15 mg/kg, iv measured up to 24 hrs by LC-MS/MS analysis; format: ADME, organism-based; details: in vivo
MIA PaCa-2 [5] = experiment: Induction of ferroptosis in human MIA PaCa-2 cells assessed as cell death at up to 1 uM in presence of […]; format: functional, cell-based
MIA PaCa-2 [6] = experiment: Induction of apoptosis in human MIA PaCa-2 cells assessed as increase in clonogenic survival up to 0.5 uM incubated for 6 days in presence of Z-VAD-FMK by crystal violet staining based analysis; format: functional, cell-based; details: time 6.0 day
MIA PaCa-2 [7] = experiment: Synergistic antiproliferative activity against human MIA PaCa-2 cells assessed as inhibition of colony formation at up to 1 uM incubated for 6 days in presence of valdecoxib; format: functional, cell-based; details: time 6.0 day
MIA PaCa-2 [8] = experiment: Synergistic antiproliferative activity against human MIA PaCa-2 cells assessed as inhibition of colony formation at up to 1 uM incubated for 6 days in presence of celecoxib; format: functional, cell-based; details: time 6.0 day
Panc02 [9] = experiment: Synergistic antiproliferative activity against mouse Panc02 cells assessed as inhibition of colony formation at up to 1 uM incubated for 6 days in presence of celecoxib; format: functional, cell-based; details: time 6.0 day
HCT-116 [10] = experiment: Induction of ferroptosis in human HCT-116 cells at up to 1 uM in presence of FIN56; format: functional, cell-based
HCT-116 [11] = experiment: Induction of necroptosis in human HCT-116 cells assessed as increase in p-RIP3 level at 10 uM incubated for 1 hr by Western blot analysis; format: functional, cell-based
[12] = Toxicity in C57BL/6 mouse assessed as body weight loss at 20 to 40 mg/kg, ip administered for 28 days; format: organism-based; details: in vivo, 672 h, dose 20-40 mg/kg, time 28 day
MIA PaCa-2 [13] = experiment: Induction of apoptosis in human MIA PaCa-2 cells assessed as upregulation of caspase 3 level at 10 uM measured for 48 hrs by Western blot analysis; format: functional, cell-based
HCT-116 [14] = experiment: Synergistic antiproliferative activity against human HCT-116 cells assessed as inhibition of colony formation at up to 10 uM in presence of TTM; format: functional, cell-based
HCT-116 [15] = experiment: Synergistic antiproliferative activity against human HCT-116 cells assessed as inhibition of colony formation at up to 1 uM incubated for 6 days in presence of MK-663; format: functional, cell-based; details: time 6.0 day
HCT-116 [16] = experiment: Induction of apoptosis in human HCT-116 cells assessed as increase in clonogenic survival up to 1 uM incubated for 6 days in presence of necrostatin-1 by crystal violet staining based analysis; format: functional, cell-based; details: time 6.0 day
HCT-116 [17] = experiment: Synergistic antiproliferative activity against human HCT-116 cells assessed as inhibition of colony formation at up to 1 uM incubated for 6 days in presence of rofecoxib; format: functional, cell-based; details: time 6.0 day
BXPC-3 = experiment: Induction of apoptosis in human BXPC-3 cells assessed as increase in clonogenic survival up to 0.5 uM incubated for 6 days in presence of necrostatin-1 by crystal violet staining based analysis; format: functional, cell-based; details: time 6.0 day
HCT-116 [18] = experiment: Induction of autophagy in human HCT-116 cells assessed as cell death at up to 1 uM incubated for 6 days in presence of chloroquine; format: functional, cell-based; details: time 6.0 day
HCT-116 [19] = experiment: Synergistic antiproliferative activity against human HCT-116 cells assessed as inhibition of colony formation at up to 1 uM in presence of CuSO4; format: functional, cell-based
[20] = Metabolic stability in mouse liver microsome assessed as half life measured up to 60 mins by LC-MS/MS analysis; format: ADME; details: liver microsomes
HCT-116 [21] = experiment: Induction of autophagy in human HCT-116 cells assessed as cell death at up to 1 uM incubated for 6 days in presence of MRT68921; format: functional, cell-based; details: time 6.0 day
MIA PaCa-2 [22] = experiment: Synergistic antiproliferative activity against human MIA PaCa-2 cells assessed as inhibition of colony formation at up to 0.5 uM in presence of CuSO4; format: functional, cell-based
KPC2 [23] = experiment: Synergistic antiproliferative activity against mouse KPC2 cells assessed as inhibition of colony formation at up to 1 uM incubated for 6 days in presence of celecoxib; format: functional, cell-based; details: time 6.0 day
HCT-116 [24] = experiment: Induction of autophagy in human HCT-116 cells assessed as cell death at up to 1 uM incubated for 6 days in presence of bafilomycin-A1; format: functional, cell-based; details: time 6.0 day
Panc02 [25] = experiment: Synergistic antiproliferative activity against mouse Panc02 cells harboring wild type KRAS at 0.01 to 3 uM in presence of MRTX1133; format: functional, cell-based; details: dose 0.01-3 µM
Panc02 [26] = experiment: Cytotoxicity against mouse Panc02 cells by MTT assay; format: functional, cell-based
Panc02 [27] = experiment: Cytotoxicity against mouse Panc02 cells harboring wild type KRAS; format: functional, cell-based
MIA PaCa-2 [28] = experiment: Synergistic antiproliferative activity against human MIA PaCa-2 cells assessed as inhibition of colony formation at up to 0.5 uM in presence of TTM; format: functional, cell-based
HCT-116 [29] = experiment: Induction of apoptosis in human HCT-116 cells assessed as upregulation of cleaved PARP level at 1 uM measured for 24 hrs in presence of CuSO4 by Western blot analysis; format: functional, cell-based
MIA PaCa-2 [30] = experiment: Synergistic antiproliferative activity against human MIA PaCa-2 cells assessed as inhibition of colony formation at up to 1 uM in presence of ZnCl2; format: functional, cell-based
HCT-116 [31] = experiment: Induction of ferroptosis in human HCT-116 cells assessed as change in GPX4 level at 5 to 10 uM incubated for 18 hrs by Western blot analysis; format: functional, cell-based; details: dose 5-10 µM
KPC2 [32] = experiment: Synergistic antiproliferative activity against mouse KPC2 cells at 0.01 to 3 uM in presence of MRTX1133; format: functional, cell-based; details: dose 0.01-3 µM
[33] = AUC in CD-1 mouse at 30 mg/kg, po measured up to 24 hrs by LC-MS/MS analysis; format: ADME, organism-based; details: in vivo
MIA PaCa-2 [34] = experiment: Cytotoxicity against human MIA PaCa-2 cells by MTT assay; format: functional, cell-based
[35] = Cytotoxicity against mouse KPC2 cells by MTT assay; format: functional, cell-based
[36] = Cmax in CD-1 mouse at 15 mg/kg, iv measured up to 24 hrs by LC-MS/MS analysis; format: ADME, organism-based; details: in vivo
MIA PaCa-2 [37] = experiment: Induction of ferroptosis in human MIA PaCa-2 cells assessed as cell death at up to 1 uM in presence of ferrostatin-1; format: functional, cell-based
MIA PaCa-2 [38] = experiment: Induction of apoptosis in human MIA PaCa-2 cells assessed as upregulation of caspase 9 level at 10 uM measured for 48 hrs by Western blot analysis; format: functional, cell-based
[39] = Clearance in CD-1 mouse at 15 mg/kg, iv measured up to 24 hrs by LC-MS/MS analysis; format: ADME, organism-based; details: in vivo

N[C@@H]1[C@H]2CN(c3cnc(C(=O)Nc4cc(F)cc5cccnc45)cn3)C[C@@H]12
1620 ng/mL: Cmax [36]
72.5 mL/min/kg: clearance [39]
inactive: Activity (HCT-116 [1]) | Activity (MIA PaCa-2 [5]) | Activity (Panc02 [25]) | Activity (Panc02 [27]) | Activity (MIA PaCa-2 [37])
3.1 h: half-life [2]
active: Activity (CT26) | Activity (MIA PaCa-2 [6]) | Activity (MIA PaCa-2 [7]) | Activity (MIA PaCa-2 [8]) | Activity (Panc02 [9]) | Activity (HCT-116 [10]) | Activity (HCT-116 [11]) | Activity (MIA PaCa-2 [13]) | Activity (HCT-116 [14]) | Activity (HCT-116 [15]) | Activity (HCT-116 [16]) | Activity (HCT-116 [17]) | Activity (BXPC-3) | Activity (HCT-116 [18]) | Activity (HCT-116 [19]) | Activity (HCT-116 [21]) | Activity (MIA PaCa-2 [22]) | Activity (KPC2 [23]) | Activity (HCT-116 [24]) | Activity (MIA PaCa-2 [28]) | Activity (HCT-116 [29]) | Activity (MIA PaCa-2 [30]) | Activity (HCT-116 [31]) | Activity (KPC2 [32]) | Activity (MIA PaCa-2 [38])
Non-toxic: Activity [12]
3420 ng·h/mL: AUC at 24 h [4]
3.4 µM: IC50 [35]
8 µM: IC50 (Panc02 [26])
> 1 h: half-life [20]
3780 ng·h/mL: AUC at 24 h [33]
0.6 µM: IC50 (MIA PaCa-2 [34])
14.6 L/kg: Vd [3]

C[C@@H]1OCC2(CCN(c3cnc(C(=O)Nc4cc(F)cc5cccnc45)cn3)CC2)[C@@H]1N
1.9 µM: IC50 (MIA PaCa-2 [34]) | IC50 [35]
37.7 mL/min/kg: clearance [39]
inactive: Activity (HCT-116 [1]) | Activity (MIA PaCa-2 [5]) | Activity (Panc02 [25]) | Activity (Panc02 [27]) | Activity (MIA PaCa-2 [37])
7.1 L/kg: Vd [3]
6640 ng·h/mL: AUC at 24 h [33]
> 1 h: half-life [20]
2.1 µM: IC50 (Panc02 [26])
4.9 h: half-life [2]
Non-toxic: Activity [12]
6010 ng·h/mL: AUC at 24 h [4]
3460 ng/mL: Cmax [36]
active: Activity (CT26) | Activity (MIA PaCa-2 [6]) | Activity (MIA PaCa-2 [7]) | Activity (MIA PaCa-2 [8]) | Activity (Panc02 [9]) | Activity (HCT-116 [10]) | Activity (HCT-116 [11]) | Activity (MIA PaCa-2 [13]) | Activity (HCT-116 [14]) | Activity (HCT-116 [15]) | Activity (HCT-116 [16]) | Activity (HCT-116 [17]) | Activity (BXPC-3) | Activity (HCT-116 [18]) | Activity (HCT-116 [19]) | Activity (HCT-116 [21]) | Activity (MIA PaCa-2 [22]) | Activity (KPC2 [23]) | Activity (HCT-116 [24]) | Activity (MIA PaCa-2 [28]) | Activity (HCT-116 [29]) | Activity (MIA PaCa-2 [30]) | Activity (HCT-116 [31]) | Activity (KPC2 [32]) | Activity (MIA PaCa-2 [38])
